≈ marks a conversion by molar mass, not a printed value.
Assays:
[1] = tested on: Rattus norvegicus; experiment: Ulcerogenic activity in albino rat assessed as ulcer index at 20 mg/kg, po administered daily for 3 successive days in two equal doses at 0 and 12 hrs measured at 6 hrs post last dose by magnifying lens based assay; type: toxicity, organism-based; conditions: in vivo
[2] = tested on: Staphylococcus aureus; experiment: Antibacterial activity against Staphylococcus aureus MTCC 96; type: functional
[3] = tested on: Pseudomonas aeruginosa; experiment: Antibacterial activity against Pseudomonas aeruginosa MTCC 1688; type: functional
[4] = tested on: Streptococcus pyogenes; experiment: Antibacterial activity against Streptococcus pyogenes MTCC 442; type: functional
[5] = tested on: K562; experiment: Growth inhibition in human K562 cells at 10^-5 mol/L relative to control; type: functional; conditions: read-out: GI
[6] = tested on: Leishmania amazonensis; experiment: Antileishmanial activity against Leishmania amazonensis amastigotes assessed as reduction in […] lode in late log phase after 24 hrs; type: functional, organism-based
[7] = tested on: Leishmania amazonensis; experiment: Antileishmanial activity against Leishmania amazonensis axenic amastigotes after 24 hrs; type: functional, organism-based
[8] = tested on: Leishmania amazonensis; experiment: Antileishmanial activity against Leishmania amazonensis amastigotes assessed as reduction in […] lode in early log phase after 24 hrs; type: functional, organism-based
[9] = tested on: Rattus norvegicus; experiment: Anti inflammatory activity in Wistar rat assessed as carrageenan-induced paw edema at 10 mg/kg, po pretreated for 15 mins followed by carrageenan addition measured after 90 mins (reference value: 38.7%); type: functional
[10] = tested on: B16-F10; experiment: Antiproliferative activity against mouse B16F10 cells after 48 hrs by MTT assay; type: functional, cell-based; conditions: B16-F10, 48 h
[11] = tested on: MCF7; experiment: Antiproliferative activity against human MCF7 cells after 48 hrs by MTT assay; type: functional, cell-based; conditions: MCF7, 48 h
[12] = species: Ovis aries; experiment: Selectivity index, ratio of IC50 for ovine COX1 to IC50 for ovine COX2
[13] = tested on: Rattus norvegicus; experiment: Anti inflammatory activity in Wistar rat assessed as inhibition of carrageenan-induced paw edema at 5 mg/kg, po pretreated for 30 mins followed by carrageenan addition measured up to 4 hrs relative to control; type: functional
[14] = tested on: Leishmania amazonensis; experiment: Antileishmanial activity against Leishmania amazonensis MHOM/BR/77/LTB0016 promastigotes after 24 hrs; type: functional, organism-based; conditions: MHOM/BR/77/LTB0016, 24 h
[15] = tested on: Leishmania infantum; experiment: Antileishmanial activity against Leishmania infantum MCAN/BR/97/P142 promastigotes after 24 hrs; type: functional, organism-based; conditions: MCAN/BR/97/P142, 24 h
[16] = tested on: IMR-32; experiment: Antiproliferative activity against human IMR32 cells after 48 hrs by SRB assay; type: functional, cell-based; conditions: IMR-32, 48 h
[17] = tested on: HeLa; experiment: Antiproliferative activity against human HeLa cells after 48 hrs by SRB assay; type: functional, cell-based
[18] = tested on: MCF7; experiment: Antiproliferative activity against human MCF7 cells after 48 hrs by SRB assay; type: functional, cell-based; conditions: MCF7, 48 h
[19] = tested on: A549; experiment: Antiproliferative activity against human A549 cells after 48 hrs by SRB assay; type: functional, cell-based; conditions: A549, 48 h
[20] = tested on: SMMC-7721; experiment: Antiproliferative activity against human SMMC7721 cells after 48 hrs by MTT assay; type: functional, cell-based; conditions: SMMC-7721, 48 h
[21] = tested on: SGC-7901; experiment: Antiproliferative activity against human SGC7901 cells after 48 hrs by MTT assay; type: functional, cell-based; conditions: SGC-7901, 48 h
[22] = tested on: Candida albicans; experiment: Antifungal activity against Candida albicans after 48 hrs; type: functional
[23] = tested on: Yarrowia lipolytica; experiment: Antifungal activity against Candida lipolytica after 48 hrs; type: functional
[24] = tested on: Bacillus subtilis; experiment: Antibacterial activity against Bacillus subtilis MTCC 441 by broth microdilution method; type: functional, organism-based
[25] = Selectivity index, ratio of IC50 for rat seminal vesicles COX1 to IC50 for recombinant human COX2
[26] = tested on: Mycobacterium tuberculosis; experiment: Antitubercular activity against Mycobacterium tuberculosis H37Rv at 100 ug/ml by broth microdilution method relative to control; type: functional
[27] = tested on: Escherichia coli; experiment: Antibacterial activity against Escherichia coli MTCC 443; type: functional
[28] = tested on: Rattus norvegicus; experiment: Anti inflammatory activity in rat assessed as inhibition of carrageenan-induced hind paw edema at 50 mg/kg measured after 1 to 4 hrs by plethysmographic method relative to control; type: functional
[29] = tested on: Escherichia coli; experiment: Antibacterial activity against Escherichia coli MTCC 443 by broth microdilution method; type: functional
[30] = tested on: Fusarium oxysporum; experiment: Antifungal activity against Fusarium oxysporum f. sp. albedinis; type: functional, organism-based
[31] = tested on: Staphylococcus aureus; experiment: Antibacterial activity against Staphylococcus aureus; type: functional
[32] = tested on: Leishmania amazonensis; experiment: Antileishmanial activity against Leishmania amazonensis amastigotes after 24 hrs by MTT assay; type: functional, organism-based
[33] = tested on: MCF7; experiment: Antiproliferative activity against human MCF7 cells; type: functional, cell-based

Work on `COc1ccc2c(c1)c(CC(=O)O)c(C)n2C(=O)c1ccc(Cl)cc1` [INDOMETHACIN] yielded a UI [1] of 12.82.

Work on `O=c1[nH]/c(=C\c2nc3cc(Cl)ccc3s2)s/c1=C\c1cn(-c2ccccc2)nc1-c1ccc(Br)cc1` yielded an Activity [2] of 100 µg/mL, an Activity [3] of 200 µg/mL and an Activity [4] of 100 µg/mL.

In the case of `Cc1cc(C)n(C(=O)c2cc(-c3ccc(F)cc3F)ccc2O)n1`, the inhibition of growth at 10 µM [5] is reported as 70%.

Molecule `CC(=O)N1CCN(c2ccc(OCC3COC(Cn4ccnc4)(c4ccc(Cl)cc4Cl)O3)cc2)CC1` (stereo not drawn) [KETOCONAZOLE] has an IC50 [6] of 29.8 µM, an IC50 [7] of 164 µM and an IC50 [8] of 12.5 µM.

For `CS(=O)(=O)Nc1ccc([N+](=O)[O-])cc1Oc1ccccc1` [NIMESULIDE], the Activity [9] was 23.4%.

In the case of `C#Cc1cccc(Nc2ncnc3cc(OCCOC)c(OCCOC)cc23)c1` [ERLOTINIB], the IC50 [10] is reported as 0.12 µM and the IC50 [11] is reported as 0.08 µM.

Molecule `COc1ccc(-c2cc(-c3ccccc3)nn2CC(=O)Nc2ccc(S(N)(=O)=O)cc2)cc1` has a Ratio IC50 [12] of 11.1, a UI [1] of 2.79 and an inhibition in vivo at 5 mg/kg [13] of 81%.

Molecule `N=C(N)c1ccc(OCCCCCOc2ccc(C(=N)N)cc2)cc1` [PENTAMIDINE] has an IC50 [14] of 21 µM and an IC50 [15] of 62 µM.

With `COC(=O)Nc1nc2cc(C(=O)c3cccs3)ccc2[nH]1` [NOCODAZOLE] the IC50 [16] was 1.3 µM, the IC50 [17] was 1.2 µM and the IC50 [18] was 1.25 µM. The IC50 [19] was 0.9 µM.

With `O=c1[nH]cc(F)c(=O)[nH]1` [FLUOROURACIL] the IC50 [20] was 19.2 µg/mL (≈ 148 µM) and the IC50 [21] was 16 µg/mL (≈ 123 µM).

Molecule `COc1ccccc1C1CC(c2ccccc2)=NN1C(=N)N` (stereo not drawn) has an MIC [22] of 15.6 to 62.5 µg/mL (≈ 53 to 212 µM) and an MIC [23] of 15.6 to 62.5 µg/mL (≈ 53 to 212 µM).

`CCn1cc(C(=O)O)c(=O)c2cc(F)c(N3CCNCC3)cc21` [NORFLOXACIN] gave an IC50 [24] of 100 µg/mL (≈ 313 µM) and an MIC [24] of 100 µg/mL (≈ 313 µM).

`Cc1ccc(/N=C/c2ccc(OCCOc3cc(C)nn3-c3ccccc3)cc2)cc1` gave an Activity [9] of 19.4% and a Ratio IC50 [25] of 0.44.

Molecule `CO[C@H]1/C=C/O[C@@]2(C)Oc3c(C)c(O)c4c(O)c(c(/C=N/N5CCN(C)CC5)c(O)c4c3C2=O)NC(=O)/C(C)=C\C=C\[C@H](C)[C@H](O)[C@@H](C)[C@@H](O)[C@@H](C)[C@H](OC(C)=O)[C@@H]1C` [RIFAMPIN] has an inhibition at 100 µg/mL [26] of 98%.

Molecule `CC1(C)S[C@@H]2[C@H](NC(=O)[C@H](N)c3ccccc3)C(=O)N2[C@H]1C(=O)O` [AMPICILLIN] has an Activity [27] of 100 µg/mL, an Activity [2] of 200 µg/mL and an Activity [4] of 200 µg/mL. It also gave an IC50 [24] of 250 µg/mL (≈ 715 µM) and an MIC [24] of 250 µg/mL (≈ 715 µM).

With `Cc1cccc(NS(=O)(=O)c2ccccc2)c1-c1ccn(S(=O)(=O)c2ccccc2)n1` the IC50 [6] was 41.3 µM, the IC50 [7] was 56 µM and the IC50 [8] was 6.7 µM.

In the case of `Clc1ccc(-c2cc(-c3nnc(/C=C/c4ccc5c(c4)OCO5)o3)[nH]n2)cc1Cl`, the IC50 [16] is reported as 4.1 µM, the IC50 [17] is reported as 2.8 µM and the IC50 [18] is reported as 3.9 µM. For the same molecule, the IC50 [19] was 2.3 µM.

In the case of `Cc1nn(-c2ccc(S(=O)(=O)Nc3ccccc3)cc2)c(Cl)c1Br`, the IC50 [14] is reported as 70 µM and the IC50 [15] is reported as 59 µM.

In the case of `Cc1ccc(-c2cc(C(F)(F)F)nn2-c2ccc(S(N)(=O)=O)cc2)cc1`, the Ratio IC50 [25] is reported as 0.0028.

`CC(=O)NC1=NN(C(C)=O)C(c2cn(-c3ccccc3)nc2-c2ccc([N+](=O)[O-])cc2)S1` (stereo not drawn) gave an inhibition in vivo at 50 mg/kg [28] greater than 84.2%.

For `Cc1n[nH]c(O)c1C(NNC(N)=O)c1ccc(O)cc1` (stereo not drawn), the MIC ([29]; Escherichia coli, MTCC 443) was 0.25 µg/mL (≈ 0.902 µM).

`C/C(O)=C/C(=O)c1cc(C)n(C)n1` showed an IC50 [30] of 0.055 µM and an MIC [30] of 0.055 µM (≈ 9.91 ng/mL).

Molecule `CN[C@@H]1[C@H](O[C@H]2[C@H](O[C@H]3[C@H](O)[C@@H](O)[C@H](N=C(N)N)[C@@H](O)[C@@H]3N=C(N)N)O[C@@H](C)[C@]2(O)C=O)O[C@@H](CO)[C@H](O)[C@H]1O` [STREPTOMYCIN] has an Activity [29] of 500 µg/mL and an Activity [31] of 500 µg/mL.

Work on `COc1ccc(-n2ncc(-c3nnn[nH]3)c2N)cc1` yielded an IC50 [32] of 22.3 µM.

Work on `O=c1[nH]/c(=C\c2nc3cc(Cl)ccc3s2)s/c1=C\c1cn(-c2ccccc2)nc1-c1ccc(Cl)cc1` yielded an Activity [27] of 100 µg/mL and an Activity [3] of 200 µg/mL.

`CC(=O)NC1=NN(C(C)=O)C(c2cn(-c3ccccc3)nc2-c2ccc(O)cc2)S1` (stereo not drawn) showed an inhibition in vivo at 50 mg/kg [28] greater than 84.2%.

`COc1ccc(/C=C/C(=O)OCc2cn(-c3ccccc3)nc2-c2ccc(OC)cc2)cc1` gave an IC50 [11] of 0.3 µM.

Molecule `O=C(O)Cc1ccccc1Nc1c(Cl)cccc1Cl` [DICLOFENAC] has an inhibition in vivo at 50 mg/kg [28] of 86.7%.

In the case of `COc1cc(/C=C/c2nnc(-c3cc(-c4ccc(Cl)cc4)n[nH]3)o2)cc(OC)c1OC`, the IC50 [16] is reported as 3.2 µM, the IC50 [17] is reported as 2.3 µM and the IC50 [18] is reported as 1.8 µM. For the same molecule, the IC50 [19] was 1.5 µM.

Work on `CCCCCCCCCCn1nc(-c2cc(Br)ccc2Cl)c(C(N)=O)c1N` yielded an IC50 [33] of 2.5 µM.

For `Cc1cc(OCCOc2ccc(/C=N/c3ccccc3)cc2)n(-c2ccccc2)n1`, the Activity [9] was 13.4% and the Ratio IC50 [25] was 0.51.
